Test results as given in the supplement of paper PMC10307832.

Legend:
Assay in all cases: relative viability (nuclei count vs DMSO), 5 days (fraction); higher = more cells survive
Doramapimod + Vorinostat = compound: Cc1ccc(-n2nc(C(C)(C)C)cc2NC(=O)Nc2ccc(OCCN3CCOCC3)c3ccccc23)cc1 [Doramapimod] + O=C(CCCCCCC(=O)Nc1ccccc1)NO [Vorinostat] (partner 1 µM)
Procedure, shortened: (§1)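 Five library-drug doses in √10 steps were combined with a fixed anchor-drug dose, or a single drug was given alone, by pin tool to lung cancer cell lines in 1536-well plates the day after seeding. Nuclei were stained and counted after 5 days. Relative viability is the nuclei count in treated wells over that in vehicle wells, taken as the median of duplicate plates.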

RAF265 + Tozasertib = compound: Cn1c(Nc2ccc(C(F)(F)F)cc2)nc2cc(Oc3ccnc(-c4ncc(C(F)(F)F)[nH]4)c3)ccc21 [RAF265] + Cc1cc(Nc2cc(N3CCN(C)CC3)nc(Sc3ccc(NC(=O)C4CC4)cc3)n2)n[nH]1 [Tozasertib] (partner 0.1 µM)
Procedure, shortened: as §1

RAF265 + Dasatinib = compound: Cn1c(Nc2ccc(C(F)(F)F)cc2)nc2cc(Oc3ccnc(-c4ncc(C(F)(F)F)[nH]4)c3)ccc21 [RAF265] + Cc1nc(Nc2ncc(C(=O)Nc3c(C)cccc3Cl)s2)cc(N2CCN(CCO)CC2)n1 [Dasatinib] (partner 0.075 µM)
Procedure, shortened: as §1

Doramapimod + Alpelisib = compound: Cc1ccc(-n2nc(C(C)(C)C)cc2NC(=O)Nc2ccc(OCCN3CCOCC3)c3ccccc23)cc1 [Doramapimod] + Cc1nc(NC(=O)N2CCC[C@H]2C(N)=O)sc1-c1ccnc(C(C)(C)C(F)(F)F)c1 [Alpelisib] (partner 2 µM)
Procedure, shortened: as §1

| Cell Line | relative viability (Doramapimod + Vorinostat; first compound 0.02 µM) | relative viability (Doramapimod + Vorinostat; first compound 0.06325 µM) | relative viability (Doramapimod + Vorinostat; first compound 0.2 µM) | relative viability (Doramapimod + Vorinostat; first compound 0.6325 µM) | relative viability (Doramapimod + Vorinostat; first compound 2 µM) | relative viability (RAF265 + Tozasertib; first compound 0.01 µM) | relative viability (RAF265 + Tozasertib; first compound 0.03162 µM) | relative viability (RAF265 + Tozasertib; first compound 0.1 µM) | relative viability (RAF265 + Tozasertib; first compound 0.3162 µM) | relative viability (RAF265 + Tozasertib; first compound 1 µM) | relative viability (RAF265 + Dasatinib; first compound 0.01 µM) | relative viability (RAF265 + Dasatinib; first compound 0.03162 µM) | relative viability (RAF265 + Dasatinib; first compound 0.1 µM) | relative viability (RAF265 + Dasatinib; first compound 1 µM) | relative viability (Doramapimod + Alpelisib; first compound 0.02 µM) | relative viability (Doramapimod + Alpelisib; first compound 0.06325 µM) | relative viability (Doramapimod + Alpelisib; first compound 0.2 µM) | relative viability (Doramapimod + Alpelisib; first compound 0.6325 µM) | relative viability (Doramapimod + Alpelisib; first compound 2 µM) | relative viability (RAF265 + Dasatinib; first compound 0.3162 µM) |
| --- | --- | --- | --- | --- | --- | --- | --- | --- | --- | --- | --- | --- | --- | --- | --- | --- | --- | --- | --- | --- |
| EKVX | 0.819 | 0.749 | 0.76 | 0.771 | 0.725 | 0.376 | 0.344 | 0.469 | 0.377 | 0.306 | 0.598 | 0.606 | 0.756 | 0.382 | 0.826 | 0.755 | 0.773 | 1 | 0.833 |  |
| ABC-1 | 1.25 | 1.29 | 1.21 | 0.865 | 1.15 | 0.17 | 0.202 | 0.178 | 0.158 | 0.24 | 0.594 | 0.562 | 0.601 | 0.378 | 1.09 | 0.839 | 1.14 | 1.08 | 0.954 | 0.498 |
| NCI-H520 | 0.672 | 0.755 | 0.653 | 0.731 | 0.609 | 0.448 | 0.414 | 0.384 | 0.491 | 0.338 | 0.177 | 0.206 | 0.197 | 0.171 | 0.883 | 0.822 | 0.954 | 0.832 | 0.807 | 0.187 |
| LCLC-97TM1 | 0.73 | 0.635 | 0.747 | 0.615 | 0.56 | 0.223 | 0.141 | 0.156 | 0.109 | 0.0904 | 0.826 | 0.826 | 0.66 | 0.442 | 0.205 | 0.221 | 0.275 | 0.266 | 0.212 | 0.852 |
| NCI-H2170 | 0.737 | 0.882 | 0.704 | 0.844 | 0.814 | 0.734 | 0.651 | 0.752 | 0.587 | 0.538 | 0.663 | 0.474 | 0.539 | 0.432 | 0.802 | 0.823 | 0.769 | 0.915 | 0.741 | 0.241 |
| NCI-H1793 | 0.718 | 0.708 | 0.673 | 0.749 | 0.519 | 0.404 | 0.421 | 0.361 |  | 0.172 | 0.486 | 0.401 | 0.361 | 0.227 | 0.788 | 0.595 | 0.786 | 0.643 | 0.595 |  |
| NCI-H3122 | 1.13 | 1.07 | 1.12 | 0.849 | 0.859 | 0.362 | 0.492 | 0.424 |  | 0.283 | 0.463 | 0.937 | 0.904 | 0.521 | 0.952 | 0.831 | 0.756 | 0.776 | 0.863 | 0.669 |
| PC-14 | 0.802 | 0.751 | 0.727 | 0.898 | 0.578 | 0.629 | 0.555 | 0.655 |  | 0.542 | 0.262 | 0.274 | 0.241 | 0.0905 | 1.01 | 1.06 | 0.892 | 0.995 | 0.89 |  |
| EPLC-272H | 0.494 | 0.529 | 0.266 | 0.528 | 0.41 | 0.218 | 0.328 | 0.275 | 0.257 | 0.199 | 0.34 | 0.303 | 0.238 | 0.139 | 0.924 | 0.918 | 0.946 | 1.04 | 0.811 | 0.234 |
| A-427 | 0.905 | 0.889 | 0.904 |  | 0.904 | 0.218 | 0.213 | 0.205 | 0.109 | 0.089 | 0.641 | 0.615 | 0.685 | 0.131 | 1.07 | 1.1 | 1.15 |  | 1.08 | 0.469 |
